Experiments:
[1] = system: balding scalp; assay: observation of balding scalp in a person treated with 13-cis-retinoic acid for cystic acne; type: in vivo, human; conditions: person treated for five months for cystic acne
Description: Linoleic acid has been proven in vitro to prevent growth of P. acnes in culture at concentrations similar to the normal level found in follicles not influenced by DHT stimulation of oil production. […] 8 Leyden, James J. M D et al., “Qualitative and Quantitative Changes in Cutaneous Bacteria Associated with Systemic Isotretinoin Therapy for Acne Conglobata”, Journal of Investigative Dermatology, Vol. 86, 390-393, 1986.

[2] = system: P. acnes; conditions: parallel to reduction of sebaceous gland oil production; cited from earlier work
[3] = system: male pattern AGA; conditions: cited from earlier work
[4] = system: keratosis pilaris; assay: topical linoleic acid oil in patients with keratosis pilaris; type: in vivo, human; conditions: in the form of an oil, more than 20 patients
Description: In pre-pubertal children prior to hormonal stimulation of facial oil production, it can be seen transiently on the cheeks, typically the least oily part of the face. […] The histology is reminiscent of the intra-follicular hyperkeratosis and low-level microinflammation seen in AGA follicles, except that AGA scalp follicles are larger and have large sebaceous glands opening into them. It is likely that localized linoleic acid deficiency with resultant aberrations in keratinization and in inflammation, due to permissive changes in microflora such as P. acnes and yeasts, is its etiology. Topical linoleic acid preparations would therefore be a logical approach to the treatment of the condition.

[5] = system: P. acnes; conditions: prior art of this inventor; cited from earlier work

## CC1=C(/C=C/C(C)=C/C=C/C(C)=C\C(=O)O)C(C)(C)CCC1 [13-cis-retinoic acid]
[1]
  terminal (full sized) hair growth in balding scalp: increased terminal (full sized) hair growth
[2]
  P. acnes counts in acne-prone skin: parallel and equal reduction in P. acnes counts

## CC(C)(C)NC(=O)[C@H]1CC[C@H]2[C@@H]3CC[C@H]4NC(=O)C=C[C@]4(C)[C@H]3CC[C@]12C [finasteride]
[3]; after one month, oral
  recipients who lost less scalp hair: 95%
[3]; after six months, oral
  recipients who began regrowing lost hairs: 67%
[3]; in vivo
  balding recipients showing poor or no response: ≥ 35%

## CCCCC/C=C\C/C=C\CCCCCCCC(=O)O [linoleic acid]
[4]
  roughness and redness of clinical keratosis pilaris: amelioration of both the roughness and redness
[5]
  concentration required to completely inhibit growth of P. acnes in culture: 2%
